Experimental findings from paper PMC6792352, “Limited Chemical Structural Diversity Found to Modulate Thyroid Hormone Receptor in the Tox21 Chemical Library” (Environmental Health Perspectives, 2019) are described below.

Structures can show the parent of a compound that is named as a salt.

One data set can be described thus: in vitro. As to conditions: rat, gh3-tre-luc cells, AC50 (uM) modified / 1000.
`Cc1nnc(C(C)C)n1[C@@H]1C[C@H]2CC[C@@H](C1)N2CC[C@H](NC(=O)C1CCC(F)(F)CC1)c1ccccc1` [Maraviroc] showed a CC50 at 24 h of over 50 µM.

The compound `CN1CCN(c2c(F)cc3c(=O)c(C(=O)O)cn4c3c2OCN4C)CC1` [Marbofloxacin] registered a half-maximal cytotoxic concentration (CC50) at 24 h of over 50 µM. `C=C1/C(=C\C=C2/CCC[C@]3(C)[C@@H]([C@H](C)OCCC(C)(C)O)CC[C@@H]23)C[C@@H](O)C[C@@H]1O` [Maxacalcitol] returned a CC50 at 24 h of over 50 µM.

Turning to `CC(NN)c1ccccc1` (stereo not drawn) [Mebanazine], the CC50 at 24 h is over 50 µM. Same read-out and setting: the value for `COC(=O)Nc1nc2ccc(C(=O)c3ccccc3)cc2[nH]1` [Mebendazole] was 0.337 µM; that for `CCN(CCCCOC(=O)c1ccc(OC)c(OC)c1)C(C)Cc1ccc(OC)cc1` (stereo not drawn) [Mebeverine hydrochloride] was over 20 µM. The same measure, in the same setting: the value for `Cc1cc(C)c(NC(=O)CN(CC(=O)O)CC(=O)O)c(C)c1Br` [Mebrofenin] was over 50 µM. In turn, `CNC1(C)C2CCC(C2)C1(C)C` (stereo not drawn) [Mecamylamine] displayed a CC50 at 24 h of over 50 µM. The compound `CCOC(=O)c1c(C)n(C)c2ccc(O)cc12` [Mecarbinate] returned a half-maximal cytotoxic concentration (CC50) at 24 h of over 50 µM. The compound `Cc1ccc(Cl)c(Nc2ccccc2C(=O)O)c1Cl` [Meclofenamate sodium] came in with a CC50 at 24 h of over 50 µM.

`Cc1cccc(CN2CCN(C(c3ccccc3)c3ccc(Cl)cc3)CC2)c1` (stereo not drawn) [Meclozine dihydrochloride]: it took 15.6 µM to reach half-maximal cytotoxicity (CC50 at 24 h).

Compound `Cc1cc(Cl)ccc1OC(C)C(=O)O` (stereo not drawn) [Mecoprop] displayed a CC50 at 24 h of over 90 µM. As to `CN1CCN=C(c2ccccc2)c2cc(Cl)ccc21` [Medazepam], the CC50 at 24 h is over 50 µM. Compound `Cc1cccc(C(C)c2cnc[nH]2)c1C` (stereo not drawn) [Medetomidine hydrochloride] showed a CC50 at 24 h of over 50 µM. Regarding `O=P(O)(O)CP(=O)(O)O` [Medronic acid], the CC50 at 24 h was over 50 µM.

The compound `CC(=O)O[C@]1(C(C)=O)CC[C@H]2[C@@H]3C[C@H](C)C4=CC(=O)CC[C@]4(C)[C@H]3CC[C@@]21C` [Medroxyprogesterone acetate] returned a half-maximal cytotoxic concentration (CC50) at 24 h of over 90 µM. The same measure, in the same setting: with `CC(=O)[C@H]1CC[C@H]2[C@@H]3C[C@H](C)C4=CC(=O)CC[C@]4(C)[C@H]3[C@@H](O)C[C@]12C` [Medrysone] the figure was over 20 µM. `COC(=O)[C@H]1[C@H]2C[C@@H]3c4[nH]c5cc(OC)ccc5c4CCN3C[C@H]2C[C@@H](OC(=O)COc2ccc(OC)cc2)[C@@H]1OC` [Mefeserpine] came in with a 50% cytotoxic concentration (CC50) at 24 h of over 50 µM. `CCN(CC)CCNC(=O)COc1ccc(OC)cc1` [Mefexamide hydrochloride] showed a CC50 at 24 h of over 50 µM. The compound `O[C@@H](c1cc(C(F)(F)F)nc2c(C(F)(F)F)cccc12)[C@H]1CCCCN1` [Mefloquine hydrochloride] showed a CC50 at 24 h of 5.17 µM. Same read-out and setting: with `CN(CC1(C)CCCO1)S(=O)(=O)c1ccc(Cl)c(S(N)(=O)=O)c1` (stereo not drawn) [Mefruside] the figure was over 50 µM; with `CNC[C@H](O)[C@@H](O)[C@H](O)[C@H](O)CO` [Meglumine], over 90 µM.

In turn, `Nc1nc(N)nc(N)n1` [Melamine] returned a 50% cytotoxic concentration (CC50) at 24 h of over 90 µM. Same read-out and setting: the value for `COc1ccc2[nH]cc(CCNC(C)=O)c2c1` [Melatonin] was over 90 µM; that for `C=C1C[C@H]2[C@@H]3C=C(C)C4=CC(=O)CC[C@]4(C)[C@H]3CC[C@]2(C)[C@@]1(OC(C)=O)C(C)=O` [Melengestrol acetate] was over 60 µM; that for `CCCCC/C=C\C/C=C\CCCCCCCC(=O)NC(C)c1ccccc1` (stereo not drawn) [Melinamide] was over 50 µM. The same measure, in the same setting: with `CN(C)CCC=C1c2ccccc2C(C)(C)c2ccccc21` [Melitracen hydrochloride] the figure was 19.6 µM.

In turn, `Cc1cnc(NC(=O)C2=C(O)c3ccccc3S(=O)(=O)N2C)s1` [Meloxicam] yielded a CC50 at 24 h of over 90 µM. In turn, `CC(C)(C)NC[C@H](O)c1ccc(O)cc1Cl` [Meluadrine] returned a CC50 at 24 h of over 50 µM. Turning to `CC12CC3CC(C)(C1)CC(N)(C3)C2` [Memantine], half-maximal cytotoxicity (CC50 at 24 h) was put at 38.1 µM. As for `Cc1cc(O)c2ccccc2c1O` [Menadiol], the CC50 at 24 h came out at 37.2 µM. The CC50 at 24 h values of the last two compounds are within 1.5-fold of each other.

`CC1(S(=O)(=O)O)CC(=O)c2ccccc2C1=O` (stereo not drawn) [Menadione sodium bisulfite] came in with a half-maximal cytotoxic concentration (CC50) at 24 h of 12.2 µM. `CC(C)=CCC/C(C)=C/CC/C(C)=C/CC/C(C)=C/CC1=C(C)C(=O)c2ccccc2C1=O` [Menatetrenone] displayed a 50% cytotoxic concentration (CC50) at 24 h of over 50 µM. Turning to `COc1ccc(C(=O)CCC(=O)O)c2ccccc12` [Menbutone], the CC50 at 24 h was over 50 µM.

`Cc1coc2c1CCC(C)C2` (stereo not drawn) [Menthofuran] came in with a half-maximal cytotoxic concentration (CC50) at 24 h of over 90 µM. Compound `CC(C)[C@@H]1CC[C@@H](C)C[C@H]1O` [Menthol] yielded a 50% cytotoxic concentration (CC50) at 24 h of over 90 µM.

In turn, `CC(C)[C@@H]1CC[C@@H](C)C[C@H]1OC(=O)c1ccccc1O` [Menthyl salicylate] yielded a CC50 at 24 h of over 50 µM. Turning to `CC#Cc1cc(C)nc(Nc2ccccc2)n1` [Mepanipyrim], the CC50 at 24 h is over 90 µM. Regarding `C[N+]1(C)CCCC(OC(=O)C(O)(c2ccccc2)c2ccccc2)C1` (stereo not drawn) [Mepenzolate bromide], the cytotoxic concentration (CC50) at 24 h is over 20 µM. Compound `Cc1ccccc1OCC(O)CO` (stereo not drawn) [Mephenesin] had a CC50 at 24 h of over 50 µM. `COc1ccccc1OCC1CNC(=O)O1` (stereo not drawn) [Mephenoxalone] yielded a CC50 at 24 h of over 50 µM. The compound `CCC1(c2ccccc2)C(=O)NC(=O)N(C)C1=O` (stereo not drawn) [Mephobarbital] registered a CC50 at 24 h of over 50 µM. The compound `C[N+]1(C)CCCCC1` [Mepiquat chloride] had a CC50 at 24 h of over 90 µM. On the same count and under the same terms, the value for `[O-][n+]1cccc(CO)c1` [Mepiroxol] was over 50 µM.

`Cc1cccc(C)c1NC(=O)C1CCCCN1C` (stereo not drawn) [Mepivicaine hydrochloride] displayed a CC50 at 24 h of over 50 µM. As for `Cc1ccc2c(n1)Oc1ccc(C(C)C(=O)OCC(=O)N(C)C)cc1C2` (stereo not drawn) [Mepranoprofen arbamel], the CC50 at 24 h was over 50 µM. For the compound `C[C@H]1C[C@H]2[C@@H]3CCC4=CC(=O)C=C[C@]4(C)[C@H]3C(=O)C[C@]2(C)[C@@]1(O)C(=O)CO` [Meprednisone], the CC50 at 24 h was over 50 µM. Same read-out and setting: with `Cc1ccccc1C(=O)Nc1cccc(OC(C)C)c1` [Mepronil] the figure was over 90 µM. As to `CCCNC(C)(C)COC(=O)c1ccccc1` [Meprylcaine hydrochloride], the CC50 at 24 h is over 50 µM. Turning to `c1ccc2c(c1)Sc1ccccc1N2CC1CN2CCC1CC2` (stereo not drawn) [Mequitazine], it took 7.76 µM to reach half-maximal cytotoxicity (CC50 at 24 h). This counts as single-digit micromolar. `C[C@@H](O)[C@H]1C(=O)N2C(C(=O)O)=C(S[C@@H]3CN[C@H](C(=O)N(C)C)C3)[C@H](C)[C@H]12` [Meropenem] had a CC50 at 24 h of over 50 µM. The same measure, in the same setting: with `COc1cc(CCN)cc(OC)c1OC` [Mescaline hydrochloride] the figure was over 100 µM; with `CS(=O)(=O)c1ccc(C(=O)C2C(=O)CCCC2=O)c([N+](=O)[O-])c1` [Mesotrione], over 90 µM; with `C#C[C@]1(O)CC[C@H]2[C@@H]3CCc4cc(OC)ccc4[C@H]3CC[C@@]21C` [Mestranol], over 90 µM. Turning to `CN1C[C@@H](NS(=O)(=O)N(C)C)C[C@@H]2c3cccc4c3c(cn4C)C[C@H]21` [Mesulergine], the midpoint of cytotoxicity, the CC50 at 24 h, lay at 22.3 µM.

The compound `COCC(=O)N(c1c(C)cccc1C)C(C)C(=O)OC` (stereo not drawn) [Metalaxyl] came in with a CC50 at 24 h of over 90 µM. Consider `C=N[C@@H](C(=O)N[C@@H]1C(=O)N2[C@@H]1SC(C)(C)[C@@H]2C(=O)O)c1ccccc1` [Metampicillin sodium], for which the CC50 at 24 h was over 50 µM. The same measure, in the same setting: with `Cc1cccc(C)c1Nc1ncccc1C(=O)O` [Metanixin] the figure was over 50 µM. The compound `C[C@H](N)[C@H](O)c1cccc(O)c1` [Metaraminol bitartrate] came in with a CC50 at 24 h of over 20 µM. For the compound `Cc1cc(C)cc(OCC2CNC(=O)O2)c1` (stereo not drawn) [Metaxalone], the CC50 at 24 h was over 50 µM.

In the case of `O=C(NNCNNC(=O)c1ccncc1)c1ccncc1` [Metazide], the half-maximal cytotoxic concentration (CC50) at 24 h is over 50 µM.

Still in this data set, the particulars now being: rat, gh3-tre-luc cells, AC50 (uM) modified / 1000, Tox21_110001=Tox21_110501; viability, 1 nM T3 present, 24 h.
Turning to `CNC(C)(C)Cc1ccccc1` [Mephentermine hemisulfate], the CC50 at 24 h was over 20 µM.

Staying with this data set, now noted: rat, gh3-tre-luc cells, AC50 (uM) modified / 1000, Tox21_110001=Tox21_110665; viability, 1 nM T3 present, 24 h.
On to `CCC1(c2cccc(O)c2)CCCCN(C)C1` (stereo not drawn) [Meptazinol hydrochloride], for which the CC50 at 24 h was over 20 µM.

The data set is the same for the next values; noted with them: rat, gh3-tre-luc cells, AC50 (uM) modified / 1000, Tox21_110001=Tox21_111063; viability, 1 nM T3 present, 24 h.
Take `CCCC(C)(COC(N)=O)COC(N)=O` [Meprobamate]: the CC50 at 24 h was over 50 µM.

The same data set, now with this note: rat, gh3-tre-luc cells, AC50 (uM) modified / 1000, Tox21_110001=Tox21_111602; viability, 1 nM T3 present, 24 h.
Regarding `CC1CCC(C(C)C)C(OC(=O)c2ccccc2N)C1` (stereo not drawn) [Menthyl anthranilate], the CC50 at 24 h stood at 42.1 µM. This counts as double-digit micromolar.

The data set is the same for the next values; noted with them: rat, gh3-tre-luc cells, AC50 (uM) modified / 1000, Tox21_110001=Tox21_112123; viability, 1 nM T3 present, 24 h.
The compound `CNC(=O)NC(O)C(Cl)(Cl)Cl` (stereo not drawn) [Mecloralurea] yielded a CC50 at 24 h of over 50 µM.

The data set is the same for the next values; noted with them: rat, gh3-tre-luc cells, AC50 (uM) modified / 1000, Tox21_110001=Tox21_112870; viability, 1 nM T3 present, 24 h.
For the compound `Cc1nc2ccccc2c(=O)n1-c1ccccc1Cl` [Mecloqualone], the 50% cytotoxic concentration (CC50) at 24 h is 42.7 µM.

The data set is the same for the next values; noted with them: rat, gh3-tre-luc cells, AC50 (uM) modified / 1000, Tox21_110001=Tox21_113424; viability, 1 nM T3 present, 24 h.
The compound `C[C@]12CCC(=O)C[C@@H]1CC[C@@H]1[C@@H]2CC[C@@]2(C)[C@H]1CC[C@]2(C)O` [Mestanolone] displayed a CC50 at 24 h of over 50 µM.

Staying with this data set, now noted: rat, gh3-tre-luc cells, AC50 (uM) modified / 1000, Tox21_110001=Tox21_200332; viability, 1 nM T3 present, 24 h.
In turn, `CCCC(C)(COC(N)=O)COC(N)=O` [Meprobamate] displayed a cytotoxic concentration (CC50) at 24 h of over 90 µM.

Staying with this data set, now noted: rat, gh3-tre-luc cells, AC50 (uM) modified / 1000, Tox21_110001=Tox21_200561; viability, 1 nM T3 present, 24 h.
`CC1CCC(C(C)C)C(OC(=O)c2ccccc2N)C1` (stereo not drawn) [Menthyl anthranilate] had a CC50 at 24 h of 27.5 µM.

The same data set, now with this note: rat, gh3-tre-luc cells, AC50 (uM) modified / 1000, Tox21_110001=Tox21_300736; viability, 1 nM T3 present, 24 h.
On to `CNC(=S)S` [Metam-sodium hydrate], for which the CC50 at 24 h was over 90 µM.

The same data set, now with this note: rat, gh3-tre-luc cells, AC50 (uM) modified / 1000, Tox21_110001=Tox21_302005; viability, 1 nM T3 present, 24 h.
On to `CCOC(=O)N(C)C(=O)CSP(=S)(OCC)OCC` [Mecarbam], for which the CC50 at 24 h is over 90 µM.

As a reminder, the CC50 is the concentration giving 50% cytotoxicity. A higher CC50 goes with better tolerance by the cells.
